In US20190248834A1, “ENDOMORPHIN-2, TETRAPEPTIDE DERIVATIVES THEREOF, AND USES THEREOF” (priority 2016, published 2019):
Non-standard residues stand in square brackets, D forms with d. pGlu = O=C1CC[C@@H](C(=O)O)N1

Tests used:
Type in all cases: in vivo, human
moderate lower back pain = assay: Example 23: analgesic effect on lower back pain, topical; conditions: 1% (w/v) in WEP442, topical
Description: A subject, working as a house cleaner, complained of moderate lower back pain at the end of a work day.

herpes zoster pain = assay: Example 6: analgesic effect on viral infection, topical
Description: A subject had herpes zoster on a temporal branch of the tri-geminal nerve with severe clinical pain involving the areas of left temporal, left forehead, left scalp, left neck, and left ear canal. Touching the left anterior scalp hair provoked severe pain.
The subject topically administered an anhydrous composition containing 0.5% (w/v) N-Ac-Tyr-Pro-Phe-Phe-NH2 (SEQ ID NO: 23) in EP73, formulated as described in Example 2, by applying a few drops to wet the skin surface. […] The pain relief lasted for up to 1 hour. Multiple repeated topical applications of the anhydrous composition containing 0.5% (w/v) N-Ac-Tyr-Pro-Phe-Phe-NH2 (SEQ ID NO: 23) in EP73 gave the same analgesic result with 4+ relief of pain according to clinical evaluation, and also for longer periods of up to 6 hours.

[1] = test system: osteoarthritis of the fingers and wrists; assay: Example 82: pain and flexibility of fingers and wrists affected by osteoarthritis, topical
Description: A subject had osteoarthritis of the fingers and wrists for about 10 years, with substantial worsening over the past several months. Symptoms included painful finger joints and wrists. The pain was much worsened by flexion, so that making a first was too painful to try. Moreover, complete flexion had not been possible because of actual physical limitations. Anatomical signs of their disorder, e.g., enlarged finger joints, were conspicuous in their case. […] Additionally, complete flexion of the fingers and making of a tight first could be done without any discomfort.

sprain of the left ankle = assay: Example 21: analgesic effect on ankle sprain, topical
Description: A subject, suffered a sprain of the left ankle after stepping on a stone while hiking, twisting the ankle inwardly. Ten days later, after wearing an elastic ankle support daily, pain from the injury persisted. The subject topically applied an anhydrous composition containing 0.7% (w/v) N-Ac-Tyr-Pro-Phe-Phe-NH2 (SEQ ID NO: 23) in EP73, formulated as described in Example 2. […] Upon arising the next morning, the subject experienced mild ankle pain, whereupon the composition was again applied. […] The subject was discomfort free thereafter.

[2] = test system: finger pain following trauma; assay: Example 31: analgesic effect on painful inflammation following trauma, topical; conditions: 1% (w/v) in WEP442, topical
Experimental: A subject, experienced sharp pain in their right index finger while trying to loosen a screw-on lid of a fruit jar with their right hand. After about 10 minutes, the pain became throbbing in nature and very intense. The proximal interphalangeal became swollen and discolored (black and blue) from subcutaneous hemorrhage. […] Discoloration of the joint faded over the next several days.

[3] = test system: psoriatic arthritis of fingers; assay: Example 19: analgesic effect on psoriatic arthritis of fingers, topical
Experimental: A subject had extensive plaque psoriasis and painful arthritis of the interphalangeal joints of both index fingers, left thumb and left 5th finger. The pain was compromising their work performance as an esthetician. […] Pain relief lasted for about 6 hours.

[4] = test system: osteoarthritis of the knees; assay: Example 94: osteoarthritic knees, intra-articular injection of N-Ac derivative; conditions: approximately 1% (w/v) in water, 1 ml per knee intra-articular
Experimental: A subject with osteoarthritis of the knees that progressively worsened over the years, evaluated the analgesic effectiveness of many topical preparations of tetrapeptide derivatives of the invention on numerous occasion. After such experiences, they decided to self-inject […] knees with a sterile aqueous preparation of N-Ac-Tyr-Pro-Phe-Phe-NH2, (SEQ ID NO: 23) at a concentration of approximately 1% (w/v) in water. Via the sub-patellar route, each knee was injected with 1 ml of the preparation, containing approximately 10 mg of the tetrapeptide . […] Walking about with the use of a wheeled walker at that time, the subject experienced knee pain, but at a level distinctly lower than earlier days before the injection. This degree of substantially diminished knee pain continued for an additional 16 hours when the return of pain was detected (3+ effect).

[5] = test system: jammed middle finger, pain and swelling; assay: Example 15: analgesic effect on injured fingers, topical; conditions: 1% (w/v) in WEP442, topical
Description: A subject, jammed their middle finger causing severe pain and swelling (inflammation). The subject topically applied a composition containing 1% (w/v) N-Ac-Tyr-Pro-Phe-Phe-NH2 ([…]) in WEP442 to the affected finger.

[6] = test system: disabling pain in hands and fingers after exertion; assay: Example 25: analgesic effect on severe muscle soreness, topical; conditions: 1% (w/v) in WEP442, topical
Description: A subject had disabling pain in their hands and fingers the next morning after a day of intense exertion of the hands and fingers from using hand screw drivers over a 12-hour period during a building construction job. The intensity of pain was so great that they were unable to lace up their work boots.

[7] = test system: painful arthritis of hands; assay: Example 76: analgesic effect on arthritis pain of the hands, topical; conditions: 0.5% (w/v) in WEP442, topical; before about 20 minutes
Experimental: A subject, and a veteran guitar player, was able to play their instrument in previous years for about an hour in group session performances. […] The subject reported that topical application to their hands of a composition containing 0.5% (w/v) of N-Pg-Tyr-Pro-Phe-Phe-NH2 (SEQ ID NO: 44) in WEP442 enabled them to play their guitar for 1 hour pain free. They also noted that the quality of their performance had improved.

stress headaches = assay: Example 69: analgesic effect on repeating stress headaches, topical; conditions: 0.5% (w/v) in WEP442, topical, 5-6 headaches over 3 weeks
Description: A person had repeated stress headaches for several months. Such headaches had been relieved, or partially relieved, by over-the-counter medication.

[8] = 0.5% (w/v) in EP73, multiple repeated topical applications
[9] = 0.7% (w/v) in EP73, first topical application
[10] = 0.7% (w/v) in EP73, second application

`CC(=O)N[C@@H](Cc1ccc(O)cc1)C(=O)N1CCC[C@H]1C(=O)N[C@@H](Cc1ccccc1)C(=O)N[C@@H](Cc1ccccc1)C(N)=O` [N-Ac-Tyr-Pro-Phe-Phe-NH2] was tested, and the pain relief (moderate lower back pain) was “almost complete relief of pain”, the “time to pain relief” value (moderate lower back pain) was 1 to 2 min and the “duration of pain relief” value (herpes zoster pain; [8]) was “up to 6 hours”. For the same compound, the “relief of pain according to clinical evaluation” value (herpes zoster pain; [8]) was 4+ (4+ (90-100%): complete relief or eradication of pain for more than 4 hours), the pain relief (herpes zoster pain; 0.5% (w/v) in EP73, topical) was “pain disappeared completely” and the “time to pain relief” value (herpes zoster pain; 0.5% (w/v) in EP73, topical) was “Within about a minute”. The “duration of pain relief” value (herpes zoster pain; 0.5% (w/v) in EP73, topical, first application) was “up to 1 hour”, the pain relief ([1]; 0.8% (w/v) in WEP442, after 1 week, one application every 12 hours) was “complete relief of pain was continually sustained” and the pain relief ([1]; 0.8% (w/v) in WEP442, one topical application, within 20 minutes) was “a degree of improvement of pain”. For the same compound, the pain relief ([1]; 0.8% (w/v) in WEP442, second application, within another 20 minutes) was “almost complete relief”, the pain relief (sprain of the left ankle; 0.7% (w/v) in EP73, application next morning, within about 5 minutes) was “no discomfort was discernible” and the pain relief (sprain of the left ankle; [9]) was “relieved almost completely”. The “time to pain relief” value (sprain of the left ankle; [9]) was 3 to 4 min, the pain relief (sprain of the left ankle; [10]) was “complete relief of all discomfort” and the “time to pain relief” value (sprain of the left ankle; [10]) was no more than 5 min. For the same compound, the pain relief [2] was “instantaneous total relief of pain”, the recurrence [2] was “No pain returned” and the “duration of pain relief” value ([3]; 1% (w/v) in WEP442, topical) was “about 6 hours”. The “time to pain relief” value ([3]; 1% (w/v) in WEP442, topical) was no more than 30 s, the pain relief ([3]; 1% (w/v) in WEP442, topical each day for one month) was “all arthritic pain of the finger was gone” and the analgesic effect grade [4] was 3+ (3+ (75%): complete relief of pain for less than 4 hours). The “discomfort from the injection” value [4] was “Mild discomfort from the injection”, the “additional duration of substantially diminished knee pain” value ([4]; after the first 24 hours) was 16 h and the knee pain ([4]; over the ensuing 24 hours) was “the knee pain gradually diminished”. The “relief of pain and swelling” value [5] was “pain and much of the swelling disappeared”, the time to relief [5] was “almost immediately” and the recurrence [6] was “did not recur at all”. The pain relief ([6]; hand-wash manner) was “instantaneous, complete relief of pain”.
“N-Pg-Tyr-Pro-Phe-Phe-NH2 ([pGlu]YPFF-NH2; SMILES NC(=O)[C@H](Cc1ccccc1)NC(=O)[C@H](Cc1ccccc1)NC(=O)[C@@H]1CCCN1C(=O)[C@H](Cc1ccc(O)cc1)NC(=O)[C@@H]1CCC(=O)N1)” was tested, and the “pain free guitar playing time” value [7] was 1 h and the headache relief (stress headaches) was “completely relieved almost immediately”.
